Key:
Format in all cases: cell-based
[1] = system: SW620 Yap KO cells; assay: Viability assay in SW620 Yap KO (Yap independent) cells, CyQUANT; conditions: Homo sapiens, SW-620, SW620 YAP and TAZ knocked out (YAP independent), 96 hour incubation, n.d. (x) = not detectable below threshold x
Outline: (§1)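 Cells were seeded 24 h before dosing, then given a 10-point, 1:3 compound series from 30 μM final (0.3% DMSO) in duplicate. After 96 h at 37 °C, viability was read by CyQUANT DNA-dye fluorescence.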

[2] = system: YAP-TEAD interaction; assay: SK-HEP-1 reporter assay (8x TEAD responsive elements driving NanoLuc luciferase); conditions: Homo sapiens, SK-HEP1, SK-HEP-1 cells, 24 hour incubation
Outline: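 SK-HEP-1 cells carrying a stably integrated 8× TEAD-element NanoLuc reporter, seeded 24 h before dosing, were treated in duplicate with a 10-point dose series (top 30 μM final, 0.3% DMSO) for 24 h at 37°C, 5% CO2. Luciferase activity read by NanoGlo luminescence; IC50 derived from it.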

[3] = system: NCI-H226 cells; assay: Viability assay in NCI-H226 (Yap-dependent) cells, CyQUANT; conditions: Homo sapiens, NCI-H226 YAP dependent cell line, 96 hour incubation, group symbols
Outline: as §1

[4] = number, or n.d. (x) = not detectable below threshold x

Structure (SMILES) | IC50 [1] [µM] | IC50 [2, 4] [µM] | IC50 [3] [µM] | IC50 ([2]; group symbols) [µM]
CNC(=O)c1cc2c3cn(C)nc3n(-c3ccc(C(F)F)cn3)c2s1 [Compound 119, 7-[5-(difluoromethyl)pyridin-2-yl]-N,4-dimethyl-9-thia-4,5,7-triazatricyclo[6.3.0.0^2,6]undeca-1(8),2,5,10-tetraene-10-carboxamide] | > 30 | > 30 | 0.1 to 1 | –
Cn1cc2c3cc(C(=O)N[C@@H](CO)c4ccccn4)sc3n(-c3ccc(C(F)F)cn3)c2n1 [Compound 120, 7-[5-(difluoromethyl)pyridin-2-yl]-N-[(1R)-2-hydroxy-1-(pyridin-2-yl)ethyl]-4-methyl-9-thia-4,5,7-triazatricyclo[6.3.0.0^2,6]undeca-1(8),2,5,10-tetraene-10-carboxamide] | > 30 | > 0.3 | 0.1 to 1 | –
CNC(=O)c1cc2c3cn(C)nc3n(-c3ccc(OC(F)F)cn3)c2s1 [Compound 121, 7-[5-(difluoromethoxy)pyridin-2-yl]-N,4-dimethyl-9-thia-4,5,7-triazatricyclo[6.3.0.0^2,6]undeca-1(8),2,5,10-tetraene-10-carboxamide] | > 30 | > 30 | 0.001 to 0.1 | –
Cn1cc2c3cc(C(=O)N[C@@H](CO)c4ccccn4)sc3n(-c3ccc(OC(F)F)cn3)c2n1 [Compound 122, 7-[5-(difluoromethoxy)pyridin-2-yl]-N-[(1R)-2-hydroxy-1-(pyridin-2-yl)ethyl]-4-methyl-9-thia-4,5,7-triazatricyclo[6.3.0.0^2,6]undeca-1(8),2,5,10-tetraene-10-carboxamide] | > 30 | – | 0.001 to 0.1 | 0.1 to 10
C[C@H](CO)NC(=O)c1cc2c3cn(C)nc3n(-c3ccc(OC(F)F)cn3)c2s1 [Compound 123, 7-[5-(difluoromethoxy)pyridin-2-yl]-N-[(2R)-1-hydroxypropan-2-yl]-4-methyl-9-thia-4,5,7-triazatricyclo[6.3.0.0^2,6]undeca-1(8),2,5,10-tetraene-10-carboxamide] | > 30 | > 0.3 | 0.001 to 0.1 | –

Further lines, results first:

IC50 [1] [µM] | IC50 [2, 4] [µM] | IC50 [3] [µM] | IC50 ([2]; group symbols) [µM] | Structure (SMILES)
> 3 | – | 0.001 to 0.1 | 0.1 to 10 | CNC(=O)c1cc2c3cn(C)nc3n(-c3ccc(OC(F)(F)F)cn3)c2s1 [Compound 124, N,4-dimethyl-7-[5-(trifluoromethoxy)pyridin-2-yl]-9-thia-4,5,7-triazatricyclo[6.3.0.0^2,6]undeca-1(8),2,5,10-tetraene-10-carboxamide]
> 30 | – | 0.001 to 0.1 | 0.1 to 10 | Cn1cc2c3cc(C(=O)N[C@@H](CO)c4ccccn4)sc3n(-c3ccc(OC(F)(F)F)cn3)c2n1 [Compound 125, N-[(1R)-2-hydroxy-1-(pyridin-2-yl)ethyl]-4-methyl-7-[5-(trifluoromethoxy)pyridin-2-yl]-9-thia-4,5,7-triazatricyclo[6.3.0.0^2,6]undeca-1(8),2,5,10-tetraene-10-carboxamide]
> 30 | – | 0.001 to 0.1 | 0.01 to 0.1 | C[C@H](CO)NC(=O)c1cc2c3cn(C)nc3n(-c3ccc(OC(F)(F)F)cn3)c2s1 [Compound 126, N-[(2R)-1-hydroxypropan-2-yl]-4-methyl-7-[5-(trifluoromethoxy)pyridin-2-yl]-9-thia-4,5,7-triazatricyclo[6.3.0.0^2,6]undeca-1(8),2,5,10-tetraene-10-carboxamide]
